The test system of data set [1] is NO production in LPS-treated RAW 264.7 cells. The data set can be described thus: Inhibition of NO production (Griess reaction) in LPS-treated RAW 264.7 macrophages. The class given is cell-based, mouse. The procedure:
(§1) Mouse macrophage cell line RAW 264.7 was cultured in DMEM medium (cat. #21885-025, Gibco) supplemented with 10% heat inactivated fetal bovine serum (cat. #10270-106, Gibco) and 1% penicillin-streptomycin (cat. #15070-063, Gibco). Cells were cultured in 37° C. and 5% CO2. Each compound was diluted in Carbowax™ 400+10% ethanol (cat. #1.00983, Sigma), used also as control solvent. Final concentration in culture was 0.1% v/v carbowax and 0.01% v/v ethanol. RAW 264.7 macrophages were activated using 100 ng/mL lipopolysaccharide (LPS) (L2630, Sigma). In IC50 determination experiments, macrophages were pre-treated for 1 h with the respective compound prior to LPS stimulation.
30×104 RAW 264.7 mouse macrophages were plated in 24-well plates over-night with 0.5 mL complete medium. Cells were pretreated for 1 h with the respected compound concentration and then stimulated with 100 ng/mL LPS (L2630, Sigma) for 48 h. The amount of nitrite, an oxidative product of NO, was measured in culture supernatant of each sample using the Griess reaction. 100 μL of supernatant was mixed with 100 μl of sulfanilamide solution (1% sulfanilamide in 5% H3PO4) and incubated for 5 min at room temperature. Then, 100 μL of NED solution (0.1% N-1-naphtylethylenediamine dihydrochlorite in H2O) was added and the absorbance was measured in an automated microplate reader (Infinate 200 PRO, Tecan) at 540 nm. Nitrite concentration was calculated using a sodium nitrite standard curve. All incubations were performed in the dark.
(§2) All data are presented as mean±SEM and as percentage in case of IC50 evaluation. Statistical analysis was performed using Graphpad Prism 7.0. D'Agostino & Pearson, Shapiro Wilk and KS tests were used to evaluate normality. In case of normality, one-way ANOVA was performed, whereas in all other cases the non-parametric Kruskal-Wallis test was used. Differences with a P value <0.05 are considered significant (*indicates P<0.05, **indicates P<0.01, ***indicates P<0.001).

Another data set relates to RAW 264.7 macrophages. As to the kind of experiment: MTT cytotoxicity / proliferation assay in RAW 264.7 macrophages. In kind it is cell-based, mouse. Conditions: for Significant cytotoxicity at concentrations above: RAW 264.7, values given in nM. The procedure:
as §1
3.5×103 RAW 264.7 mouse macrophages were seeded in 96-well plate and cultured overnight. Cells were subsequently treated with the respective compound concentration and incubated for 24, 48 and 72 h. Number of cells was measured prior to treatment and used as normalisation control. Thiazolyl Blue Tetrazolium Bromide (MTT) (A2231.001, Applichem) was added to the cells in a final concentration of 0.5 mg/mL and then cells were incubated at 37° C. and 5% CO2 for 4 h. The supernatant was discarded and cells were lysed with 2-propanol (33539, Honeywell) with 0.4% HCl (30721, Sigma). The absorbance of each sample was measured in an automated microplate reader (Infinite 200 PRO, Tecan) at 600 nm. The average OD of each treated sample was normalized to the OD of the control sample and statistical analysis was performed using Graphpad Prism 7.0.
as §2

Where [2] appears, read: Mus musculus, RAW264.7, LPS (100 ng/mL)-treated RAW 264.7, 1 h pre-treatment, 48 h, vs Carbowax 400 control, mean ± SEM, read-out: IC50 Inhibition of NO production.
The mark [3] stands for this setting: Mus musculus, RAW264.7, LPS-treated RAW 264.7, values given in nM, read-out: IC50 for inhibition of NO production (anti-inflammatory activity).
The mark [4] stands for this setting: MTT, RAW 264.7, 72 h of treatment, concentration above which cytotoxic.

Where two headings read alike, the source gives them in different places.

Consider `CC[C@@H]1O[C@@H]2C[C@H]3O[C@H]3C[C@H](C=C=CBr)O[C@@H]2C[C@H]1Br` [Compound a1, Thuwalallene A], for which the IC50 in data set [1] (LPS (100 ng/mL)-treated RAW 264.7, 1 h pre-treatment, 48 h, vs Carbowax 400 control, mean ± SEM, read-out: IC50 Inhibition of NO production) was determined as 26000 nM.

With `CC[C@@H]1O[C@@H]2C/C=C\C[C@H](C=C=CBr)O[C@@H]2CC1Br` (stereo partly shown) [Compound a3, Thuwalallene C], the half-maximal inhibitory concentration (IC50) in data set [1] (setting [2]) was determined as 4180 nM.

In the case of `C#C/C=C\C[C@@H]1O[C@@H]2C[C@@H](Br)[C@H](CC)O[C@@H]2C[C@@H]1Br` [Compound a4, Thuwalenyne A], the “Anti-inflammatory activity (in words)” value in data set [1] (LPS-treated RAW 264.7, all concentrations tested) is given as “did not exhibit anti-inflammatory activity”. In addition, the “Cytotoxicity (in words)” value in the data set on RAW 264.7 macrophages is “did not exhibit anti-inflammatory activity or cytotoxicity”. Besides, the “Cytotoxicity (at 72 h)” value with RAW 264.7 macrophages (mouse, 72 h) is greater than 62.5 µM.

On to `CC(C)(O)C1CC[C@](C)([C@@H](O)CC[C@](C)(O)[C@H]2CC[C@H]3O[C@@H]([C@]4(C)CC[C@@H](Br)C(C)(C)O4)CC[C@]3(C)O2)O1` (stereo partly shown) [Compound a10, thyrsiferol], for which the IC50 in data set [1] (setting [2]) and in data set [1] (setting [3]) was 4.39 nM throughout. Moreover, the “Cytotoxicity (at 72 h)” value in the data set with RAW 264.7 macrophages (setting [4]) is greater than 0.1 µM. Moreover, the “Significant cytotoxicity at concentrations above” value in the data set with RAW 264.7 macrophages (MTT) is reported as “above 100 nM”.

In the case of `CC(=O)OC(C)(C)C1CC[C@](C)([C@@H](O)CC[C@](C)(O)[C@H]2CC[C@H]3O[C@@H]([C@]4(C)CC[C@@H](Br)C(C)(C)O4)CC[C@]3(C)O2)O1` (stereo partly shown) [a11, 23-acetyl-thyrsiferol], the half-inhibitory concentration (IC50) in data set [1] (setting [2]) and in data set [1] (setting [3]) was 2.63 nM each time. In addition, the “Cytotoxicity (at 72 h)” value with RAW 264.7 macrophages (setting [4]) is greater than 0.01 µM. Also, the “Significant cytotoxicity at concentrations above” value with RAW 264.7 macrophages (MTT) was “above 10 nM”.

Values taken from patent US20220112208A1, “COMPOUNDS WITH ANTIINFLAMMATORY ACTIVITY AND METHODS OF USE THEREOF” (King Abdullah University of Science and Technology, priority 2020, published 2022).
